Test results as given in patent US9067926B2, “Fluoromethyl-5,6-dihydro-4H-[1,3]OXAZINES” (F. Hoffmann-La Roche AG, priority 2012, dated 2015).

Key:
CYP2D6 = target: T1, CYP2D6 (Homo sapiens, UniProt P10635); assay: CYP inhibition assay, CYP2D6; assay type: in vitro ADME; settings: pooled human liver microsomes, dextromethorphan substrate; read-out: CYP IC50 2D6
T1 construct: 0.2 mg/ml pooled human liver microsomes; from tissue; host or cells: pooled human liver microsomes
Method: (§1) Inhibition of cytochromes P450 (CYPs) 2C9, 2D6 and 3A4 was assessed using human liver microsomes and CYP-selective substrate metabolism reactions. […] Quenched incubates were stored at −20° C. for at least 1 hour before centrifugation (20,000×g, 20 minutes). Supernatants were removed and diluted 1:1 with water prior to analysis using a RapidFire sample injector system and API4000 mass spectrometer. Peak areas for substrate, metabolite and stable-labelled metabolite standard were determined using MS/MS. The peak area ratios between the metabolite generated by the enzymatic reaction and the internal standard were used in subsequent calculations. The percentage of (DMSO) control activity was calculated for each incubate and IC50 values estimated by non-linear regression. Sulfaphenazole, quinidine or ketoconazole were tested in each CYP2C9, CYP2D6 or CYP3A4 inhibition experiment, respectively, to ensure assay sensitivity and reproducibility.

CYP3A4 = target: T2, CYP3A4 (Homo sapiens, UniProt P08684); assay: CYP inhibition assay, CYP3A4; assay type: in vitro ADME; settings: pooled human liver microsomes, midazolam substrate; read-out: CYP IC50 3A4
T2 construct: 0.2 mg/ml pooled human liver microsomes; from tissue; host or cells: pooled human liver microsomes
Method: as §1

[1] = target: T3, recombinant human cathepsin E (Homo sapiens, UniProt P14091); assay: Cathepsin E fluorescent substrate kinetic assay; assay type: biochemical; settings: pH 4.5
T3 construct: purchased R&D Systems
T3 sequence (P14091 54-396): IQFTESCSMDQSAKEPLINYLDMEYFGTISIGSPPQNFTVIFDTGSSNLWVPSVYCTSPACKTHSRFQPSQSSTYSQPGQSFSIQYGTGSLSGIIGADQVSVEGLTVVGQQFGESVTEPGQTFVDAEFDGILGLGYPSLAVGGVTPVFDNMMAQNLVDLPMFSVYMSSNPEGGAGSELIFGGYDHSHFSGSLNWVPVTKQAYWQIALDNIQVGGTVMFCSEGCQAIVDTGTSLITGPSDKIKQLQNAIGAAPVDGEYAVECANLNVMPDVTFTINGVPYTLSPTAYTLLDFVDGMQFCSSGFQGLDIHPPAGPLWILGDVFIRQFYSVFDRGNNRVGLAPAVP
Source text: Cathepsin D and Cathepsin E Fluorescent Substrate Kinetic Assays
The MR121 fluorescence assays described below are based on the fact that MR121 forms a non-fluorescent ground state complex with tryptophan. In solution this formation occurs at millimolar concentrations of tryptophan. The mechanism can be used to design a generic biochemical assay for proteases. […] In absence of protease activity, the substrates remain intact and the MR121 fluorescence is reduced by the high local Trp-concentration. If the substrates are cleaved by the enzymes the MR121 fluorescence is recovered.
The fluorescent substrate cathepsin D and cathepsin E kinetic assays were performed at room temperature in 384-well microtiter plates (black with clear flat bottom, non binding surface plates from Corning) in a final volume of 51 μl. The test compounds were serially diluted in DMSO (15 concentrations, 1/3 dilution steps) and 1 μl of diluted compounds were mixed for 10 min with 40 μl of cathepsin D (from human liver, Calbiochem) diluted in assay buffer (100 mM sodium acetate, 0.05% BSA, pH 5.5; final concentration: 200 nM) or with 40 μl of recombinant human cathepsin E (R&D Systems) diluted in assay buffer (100 mM sodium acetate, 0.05% BSA, pH 4.5; final concentration: 0.01 nM). […] The slope in the linear range of the kinetic was calculated and the IC50 of the test compounds were determined using a four parameter equation for curve fitting.

BACE1 = target: T4, BACE1 (Homo sapiens, UniProt P56817); assay: Cellular Aβ-lowering assay (Abeta 40 AlphaLISA); assay type: cell-based; settings: HEK293 APP cells, 18-20 hrs incubation, Aβ 40 in culture supernatant; read-out: BACE1 cell act. Aβ40 IC50
T4 construct: endogenous in cells; host or cells: HEK293 APP cells
Method: Cellular Aβ-Lowering Assay:
The Abeta 40 AlphaLISA Assay can be used. The HEK293 APP cells were seeded in 96 well Microtiter plates in cell culture medium (Iscove's, plus 10% (vv) fetal bovine serum, penicillinstreptomycin) to about 80% confluency and the compounds were added at a 3× concentration in 13 volume of culture medium (final DMSO concentration was kept at 1% vv). After 18-20 hrs incubation at 37° C. and 5% CO2 in a humidified incubator, the culture supernatants were harvested for the determination of Aβ 40 concentrations using Perkin-Elmer Human Amyloid beta 1-40 (high specificity) Kit (Cat# AL275C).
Levels of Aβ 40 in the culture supernatants were calculated as percentage of maximum signal (cells treated with 1% DMSO without inhibitor). The IC50 values were calculated using the Excel XLfit software.

hERG = hERG (Homo sapiens, UniProt Q12809); assay: hERG current measurement (automated patch clamp); assay type: cell-based
Method: The hERG current measurement was performed at an automated patch clamp system following the procedure described in R. E. Martin et al. in Bio org.

CYP2C9 = target: T5, CYP2C9 (Homo sapiens, UniProt P11712); assay: CYP inhibition assay, CYP2C9; assay type: in vitro ADME; settings: pooled human liver microsomes, diclofenac substrate; read-out: CYP IC50 2C9
T5 construct: 0.2 mg/ml pooled human liver microsomes; from tissue; host or cells: pooled human liver microsomes
Method: as §1

T1 sequence (P10635 whole entry): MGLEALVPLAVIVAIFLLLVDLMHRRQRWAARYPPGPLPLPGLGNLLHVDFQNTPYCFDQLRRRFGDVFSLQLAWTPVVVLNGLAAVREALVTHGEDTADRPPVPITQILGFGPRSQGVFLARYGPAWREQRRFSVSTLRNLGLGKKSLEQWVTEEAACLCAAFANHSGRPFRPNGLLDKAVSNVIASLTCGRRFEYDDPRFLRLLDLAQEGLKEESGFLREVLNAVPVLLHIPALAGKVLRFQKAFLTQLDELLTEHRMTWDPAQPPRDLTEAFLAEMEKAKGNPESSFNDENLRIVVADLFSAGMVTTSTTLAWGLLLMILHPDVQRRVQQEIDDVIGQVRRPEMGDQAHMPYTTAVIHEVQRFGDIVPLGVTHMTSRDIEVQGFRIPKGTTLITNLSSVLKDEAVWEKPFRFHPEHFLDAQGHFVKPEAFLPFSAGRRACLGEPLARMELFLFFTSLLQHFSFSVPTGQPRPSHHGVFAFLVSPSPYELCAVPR
Sequence of hERG (Q12809 whole entry): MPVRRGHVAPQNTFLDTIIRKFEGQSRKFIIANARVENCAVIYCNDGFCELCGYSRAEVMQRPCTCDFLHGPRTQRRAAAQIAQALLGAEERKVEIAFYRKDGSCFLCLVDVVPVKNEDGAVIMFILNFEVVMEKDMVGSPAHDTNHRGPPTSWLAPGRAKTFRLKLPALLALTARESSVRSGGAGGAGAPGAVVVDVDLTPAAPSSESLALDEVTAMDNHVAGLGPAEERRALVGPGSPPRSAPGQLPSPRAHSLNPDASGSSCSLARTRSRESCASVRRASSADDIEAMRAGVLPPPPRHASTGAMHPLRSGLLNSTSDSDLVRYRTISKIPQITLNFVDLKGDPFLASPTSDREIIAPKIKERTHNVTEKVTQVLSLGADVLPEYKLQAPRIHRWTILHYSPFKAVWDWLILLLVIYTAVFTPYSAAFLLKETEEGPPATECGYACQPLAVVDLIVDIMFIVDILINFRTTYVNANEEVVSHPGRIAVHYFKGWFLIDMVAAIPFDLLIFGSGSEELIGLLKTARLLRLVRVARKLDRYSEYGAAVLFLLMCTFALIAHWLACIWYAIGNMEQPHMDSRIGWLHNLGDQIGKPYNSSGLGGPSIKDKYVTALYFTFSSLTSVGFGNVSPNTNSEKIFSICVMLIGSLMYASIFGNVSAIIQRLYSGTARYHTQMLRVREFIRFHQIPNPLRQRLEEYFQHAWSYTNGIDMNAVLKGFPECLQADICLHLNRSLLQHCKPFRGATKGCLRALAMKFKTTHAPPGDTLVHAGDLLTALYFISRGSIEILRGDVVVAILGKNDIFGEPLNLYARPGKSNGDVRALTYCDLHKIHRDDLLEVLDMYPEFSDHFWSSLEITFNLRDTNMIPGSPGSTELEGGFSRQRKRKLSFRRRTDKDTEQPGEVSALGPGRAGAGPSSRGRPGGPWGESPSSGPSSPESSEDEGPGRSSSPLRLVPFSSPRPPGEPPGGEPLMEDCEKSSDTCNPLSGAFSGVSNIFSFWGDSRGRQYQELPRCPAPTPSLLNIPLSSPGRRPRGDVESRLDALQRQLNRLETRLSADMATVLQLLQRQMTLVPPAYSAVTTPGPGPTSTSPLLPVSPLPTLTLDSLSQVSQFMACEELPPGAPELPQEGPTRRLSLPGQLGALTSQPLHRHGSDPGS
T4 sequence (P56817 46-501): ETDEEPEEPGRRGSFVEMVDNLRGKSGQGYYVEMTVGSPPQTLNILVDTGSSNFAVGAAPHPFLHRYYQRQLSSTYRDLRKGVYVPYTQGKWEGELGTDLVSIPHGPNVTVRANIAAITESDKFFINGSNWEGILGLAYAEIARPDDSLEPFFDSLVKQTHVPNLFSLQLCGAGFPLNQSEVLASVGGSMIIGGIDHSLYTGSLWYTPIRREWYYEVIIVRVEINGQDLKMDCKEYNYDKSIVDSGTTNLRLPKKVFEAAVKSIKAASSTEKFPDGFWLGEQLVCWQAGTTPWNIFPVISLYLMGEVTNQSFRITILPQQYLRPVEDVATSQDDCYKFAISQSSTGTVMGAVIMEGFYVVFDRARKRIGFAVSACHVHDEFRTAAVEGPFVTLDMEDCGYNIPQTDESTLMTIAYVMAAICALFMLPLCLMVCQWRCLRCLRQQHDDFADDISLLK
T2 sequence (P08684 whole entry): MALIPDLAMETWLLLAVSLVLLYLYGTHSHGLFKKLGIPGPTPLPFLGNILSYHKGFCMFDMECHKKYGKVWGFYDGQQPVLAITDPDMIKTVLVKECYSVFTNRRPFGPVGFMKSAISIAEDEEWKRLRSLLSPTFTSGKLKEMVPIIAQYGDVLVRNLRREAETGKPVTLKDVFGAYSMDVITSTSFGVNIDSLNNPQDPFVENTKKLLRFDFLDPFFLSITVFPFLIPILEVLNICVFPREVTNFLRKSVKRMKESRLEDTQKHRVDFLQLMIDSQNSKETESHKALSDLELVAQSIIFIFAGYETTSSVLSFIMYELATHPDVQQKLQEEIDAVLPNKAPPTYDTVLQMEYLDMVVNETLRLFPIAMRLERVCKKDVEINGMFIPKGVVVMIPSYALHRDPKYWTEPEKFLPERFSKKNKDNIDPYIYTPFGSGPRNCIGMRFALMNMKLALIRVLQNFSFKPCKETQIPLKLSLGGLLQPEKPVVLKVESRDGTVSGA
T5 sequence (P11712 whole entry): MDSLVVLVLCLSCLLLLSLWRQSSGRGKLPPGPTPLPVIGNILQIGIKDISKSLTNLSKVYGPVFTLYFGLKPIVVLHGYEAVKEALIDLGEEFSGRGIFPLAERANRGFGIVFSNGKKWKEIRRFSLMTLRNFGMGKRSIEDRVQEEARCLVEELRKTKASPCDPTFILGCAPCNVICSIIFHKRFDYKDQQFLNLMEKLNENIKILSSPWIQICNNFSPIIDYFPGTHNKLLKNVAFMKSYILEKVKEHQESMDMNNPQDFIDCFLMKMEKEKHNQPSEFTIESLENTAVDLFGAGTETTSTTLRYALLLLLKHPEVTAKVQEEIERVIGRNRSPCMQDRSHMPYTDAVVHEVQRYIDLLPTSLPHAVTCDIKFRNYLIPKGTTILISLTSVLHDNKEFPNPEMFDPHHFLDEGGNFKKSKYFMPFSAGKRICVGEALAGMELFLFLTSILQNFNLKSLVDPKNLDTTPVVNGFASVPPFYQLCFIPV

IC50 (CYP2D6) [µM]	IC50 (CYP3A4) [µM]	IC50 [1] [µM]	IC50 (BACE1) [µM]	IC50 (CYP2C9) [µM]	Compound	hERG Inhibition @ 10 μM (hERG)
3.9	> 50	> 200	0.005	> 50	C[C@@]1(c2cc(NC(=O)c3ccc(Cl)cn3)ccc2F)C[C@@H](C(F)(F)F)OC(N)=N1 [Example 2, N-(3-((4S,6S)-2-amino-4-methyl-6-(trifluoromethyl)-5,6-dihydro-4H-1,3-oxazin-4-yl)-4-fluorophenyl)-5-chloropicolinamide]	84
1.6	> 50	> 200	0.004	> 50	C[C@@]1(c2cc(NC(=O)c3ccc(OCF)cn3)ccc2F)C[C@@H](C(F)(F)F)OC(N)=N1 [Example 11, N-(3-((4S,6S)-2-Amino-4-methyl-6-(trifluoromethyl)-5,6-dihydro-4H-1,3-oxazin-4-yl)-4-fluorophenyl)-5-(fluoromethoxy)picolinamide]	26
13	> 50	> 200	0.0002	33	CC#CCOc1cnc(C(=O)Nc2ccc(F)c([C@]3(C)C[C@@H](C(F)(F)F)OC(N)=N3)c2)cn1 [Example 22, N-(3-((4S,6S)-2-Amino-4-methyl-6-(trifluoromethyl)-5,6-dihydro-4H-1,3-oxazin-4-yl)-4-fluorophenyl)-5-(but-2-ynyloxy)pyrazine-2-carboxamide]	
5.2	> 50	> 200	0.019	33	NC1=N[C@](CF)(c2cc(NC(=O)c3ccc(OCF)cn3)ccc2F)C[C@@H](C(F)(F)F)O1 [Example 35, N-(3-((4S,6S)-2-Amino-4-(fluoromethyl)-6-(trifluoromethyl)-5,6-dihydro-4H-1,3-oxazin-4-yl)-4-fluorophenyl)-5-(fluoromethoxy)picolinamide]	26
